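96-well plates; 48 h exposure; 5 concentrations. Endpoints by linear interpolation between flanking doses. Not reached: highest tested concentration assigned. Here, GI50 denotes the concentration required for 50% inhibition of growth.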 Active and inactive are the calls of the source. Rule as the data show it: active = GI50 up to about 1.1 µM and inactive = higher.
Assays:
Assay in all cases: inhibition of tumour cell growth, NCI panel, 48 h
[1] = tested on: A498
[2] = tested on: ACHN
[3] = tested on: CCRF-CEM
[4] = tested on: IGROV-1
[5] = tested on: Malme-3M
[6] = tested on: NCI-H460
[7] = tested on: RXF 393
[8] = tested on: SF-268
[9] = tested on: SF-539
[10] = tested on: SN12C
[11] = tested on: SNB-19
[12] = tested on: U-251
[13] = tested on: UO-31
[14] = tested on: HCT-116
[15] = tested on: SNB-75

Row | SMILES | GI50 [1] | GI50 [2] | GI50 [3] | GI50 [4] | GI50 [5] | GI50 [6] | GI50 [7] | GI50 [8] | GI50 [9] | GI50 [10] | GI50 [11] | GI50 [12] | GI50 [13] | GI50 [14] | GI50 [15]
1 | O=C(N/N=C/c1cc(Br)ccc1O)N/N=C/c1cc(Br)ccc1O | > 100 µM (inactive) | 4.6 µM (inactive) | 1.4 µM (inactive) | 2.14 µM (inactive) | 3.64 µM (inactive) | 3.1 µM (inactive) | > 100 µM (inactive) | 5.75 µM (inactive) | 0.877 µM (active) | 5.35 µM (inactive) | 5.31 µM (inactive) | 3.55 µM (inactive) | 0.64 µM (active) | – | –
2 | CN1OC(CO)CC12C1CC3CC(C1)CC2C3 (centres undefined) | > 100 µM (inactive) | > 100 µM (inactive) | > 100 µM (inactive) | > 100 µM (inactive) | > 100 µM (inactive) | > 100 µM (inactive) | > 100 µM (inactive) | > 100 µM (inactive) | > 100 µM (inactive) | > 100 µM (inactive) | > 100 µM (inactive) | > 100 µM (inactive) | > 100 µM (inactive) | > 100 µM (inactive) | > 100 µM (inactive)
3 | CSc1ccc(Cc2cc(C(C)(C)C)cc(C(C)(C)C)c2O)cc1 | 15.6 µM (inactive) | 15 µM (inactive) | 15.5 µM (inactive) | 13.8 µM (inactive) | 15.2 µM (inactive) | 14 µM (inactive) | 13.3 µM (inactive) | 15.8 µM (inactive) | 17.3 µM (inactive) | 15.1 µM (inactive) | 16.3 µM (inactive) | 14.8 µM (inactive) | 17 µM (inactive) | 10.8 µM (inactive) | 16 µM (inactive)
4 | C=CCN(N=O)C(=O)N(CCCCC(NC(C)=O)C(=O)NCc1ccccc1)Cc1ccccc1 (centres undefined) | 42.9 µM (inactive) | 42.9 µM (inactive) | 28.2 µM (inactive) | > 100 µM (inactive) | 20.2 µM (inactive) | 39.2 µM (inactive) | 21.7 µM (inactive) | 41.9 µM (inactive) | 38.1 µM (inactive) | 41.5 µM (inactive) | 51.5 µM (inactive) | 42.5 µM (inactive) | 29.6 µM (inactive) | – | 38.4 µM (inactive)
5 | O=C1NC(=O)C2C(=O)NC(=O)C1C2(c1ccccc1)c1cc[nH]c1 (centres undefined) | > 100 µM (inactive) | > 100 µM (inactive) | > 100 µM (inactive) | > 100 µM (inactive) | > 100 µM (inactive) | > 100 µM (inactive) | > 100 µM (inactive) | > 100 µM (inactive) | > 100 µM (inactive) | > 100 µM (inactive) | > 100 µM (inactive) | – | 74.6 µM (inactive) | – | > 100 µM (inactive)
6 | Cc1ccc(S(=O)(=O)N/N=C(\CCN2CCCC2)CC(c2ccccc2)c2c(O)c3ccccc3oc2=O)cc1 (centres undefined) | > 100 µM (inactive) | > 100 µM (inactive) | 95.5 µM (inactive) | > 100 µM (inactive) | > 100 µM (inactive) | > 100 µM (inactive) | > 100 µM (inactive) | > 100 µM (inactive) | > 100 µM (inactive) | > 100 µM (inactive) | > 100 µM (inactive) | > 100 µM (inactive) | > 100 µM (inactive) | > 100 µM (inactive) | > 100 µM (inactive)
7 | CC(C)(C)C1=Cc2cc3cc(C(C)(C)C)[nH]c(=O)c3cc2S(=O)(=O)N1 | 53.2 µM (inactive) | 30.3 µM (inactive) | 26.6 µM (inactive) | – | 22.4 µM (inactive) | 37 µM (inactive) | – | 26.1 µM (inactive) | – | 42.7 µM (inactive) | 36.4 µM (inactive) | 18 µM (inactive) | 17.1 µM (inactive) | 20.5 µM (inactive) | 37.8 µM (inactive)
8 | O=C1c2ccccc2OP(=O)(OCC(F)(F)F)OC1(C(F)(F)F)C(F)(F)F (centres undefined) | > 100 µM (inactive) | > 100 µM (inactive) | > 100 µM (inactive) | > 100 µM (inactive) | – | > 100 µM (inactive) | > 100 µM (inactive) | > 100 µM (inactive) | > 100 µM (inactive) | > 100 µM (inactive) | > 100 µM (inactive) | > 100 µM (inactive) | 45.3 µM (inactive) | > 100 µM (inactive) | > 100 µM (inactive)
9 | NC(=S)N/N=C(\C(=O)Nc1ccc(Cl)c(Cl)c1)C1=NN(c2ccccc2)C(c2cccc([N+](=O)[O-])c2)CC1=O (centres undefined) | > 100 µM (inactive) | 39.2 µM (inactive) | 17.2 µM (inactive) | 27 µM (inactive) | > 100 µM (inactive) | 36.6 µM (inactive) | – | 38.5 µM (inactive) | 23.8 µM (inactive) | 16.8 µM (inactive) | 35.6 µM (inactive) | 4.31 µM (inactive) | 30.3 µM (inactive) | 4.29 µM (inactive) | 26.5 µM (inactive)
10 | CCN1CCN(c2ccc(Nc3ccnc4ccc5nn(C)nc5c34)cc2)CC1 | – | 10.6 µM (inactive) | > 100 µM (inactive) | 18.6 µM (inactive) | 16.9 µM (inactive) | 5.41 µM (inactive) | 10.2 µM (inactive) | 14.9 µM (inactive) | 13.8 µM (inactive) | 10.7 µM (inactive) | 18.7 µM (inactive) | 13.5 µM (inactive) | 12.8 µM (inactive) | 5.58 µM (inactive) | 13.2 µM (inactive)
11 | Cc1cc2c(=O)cc(-c3ccncc3)oc2c(C(N)=O)c1C | – | > 100 µM (inactive) | > 100 µM (inactive) | > 100 µM (inactive) | > 100 µM (inactive) | 87.9 µM (inactive) | > 100 µM (inactive) | > 100 µM (inactive) | > 100 µM (inactive) | > 100 µM (inactive) | > 100 µM (inactive) | > 100 µM (inactive) | > 100 µM (inactive) | 83.4 µM (inactive) | > 100 µM (inactive)
12 | O=C1CC[C@H]2CNC(=O)C[C@H]2C1 | > 100 µM (inactive) | – | > 100 µM (inactive) | > 100 µM (inactive) | > 100 µM (inactive) | > 100 µM (inactive) | > 100 µM (inactive) | > 100 µM (inactive) | > 100 µM (inactive) | > 100 µM (inactive) | > 100 µM (inactive) | > 100 µM (inactive) | > 100 µM (inactive) | > 100 µM (inactive) | > 100 µM (inactive)
13 | N#Cc1ccc(C(C2C(=O)NC(=O)NC2=O)C2C(=O)NC(=O)NC2=O)cc1 | – | > 100 µM (inactive) | > 100 µM (inactive) | > 100 µM (inactive) | > 100 µM (inactive) | > 100 µM (inactive) | – | > 100 µM (inactive) | > 100 µM (inactive) | > 100 µM (inactive) | > 100 µM (inactive) | > 100 µM (inactive) | > 100 µM (inactive) | > 100 µM (inactive) | –
14 | O=C(O)CCc1nn2c(nc1=O)sc1ccc3ccccc3c12 | – | > 100 µM (inactive) | > 100 µM (inactive) | > 100 µM (inactive) | > 100 µM (inactive) | > 100 µM (inactive) | > 100 µM (inactive) | > 100 µM (inactive) | > 100 µM (inactive) | > 100 µM (inactive) | > 100 µM (inactive) | > 100 µM (inactive) | > 100 µM (inactive) | > 100 µM (inactive) | > 100 µM (inactive)
15 | CCOC(=O)NC(=O)c1cn(C2OC(COC(=O)CCCCCCCCC(=O)OCC3OC(n4cc(C(=O)NC(=O)OCC)c(=O)[nH]c4=O)C(O)C3O)C(O)C2O)c(=O)[nH]c1=O (centres undefined) | > 100 µM (inactive) | > 100 µM (inactive) | > 100 µM (inactive) | > 100 µM (inactive) | > 100 µM (inactive) | > 100 µM (inactive) | > 100 µM (inactive) | > 100 µM (inactive) | > 100 µM (inactive) | > 100 µM (inactive) | > 100 µM (inactive) | – | > 100 µM (inactive) | > 100 µM (inactive) | > 100 µM (inactive)
16 | COC1OC(OC)C2C(c3c(C)cc(C)cc3C)=NOC12 (centres undefined) | – | > 100 µM (inactive) | > 100 µM (inactive) | > 100 µM (inactive) | > 100 µM (inactive) | > 100 µM (inactive) | > 100 µM (inactive) | > 100 µM (inactive) | – | – | > 100 µM (inactive) | 20.3 µM (inactive) | > 100 µM (inactive) | > 100 µM (inactive) | > 100 µM (inactive)
17 | O=C(/C=C/c1ccc(-c2ccccc2)cc1)c1ccccc1 | 20 µM (inactive) | 31.6 µM (inactive) | 90.4 µM (inactive) | 26.7 µM (inactive) | 41.9 µM (inactive) | 20.6 µM (inactive) | – | 24.8 µM (inactive) | 17.9 µM (inactive) | 30.4 µM (inactive) | – | 22.9 µM (inactive) | 35 µM (inactive) | 14.5 µM (inactive) | 31 µM (inactive)
18 | COc1ccc(/C=N\N2C(=O)Cc3ccccc32)cc1 | > 100 µM (inactive) | > 100 µM (inactive) | > 100 µM (inactive) | > 100 µM (inactive) | > 100 µM (inactive) | > 100 µM (inactive) | – | 74.3 µM (inactive) | 39 µM (inactive) | – | > 100 µM (inactive) | 48.4 µM (inactive) | 39.3 µM (inactive) | > 100 µM (inactive) | 17.9 µM (inactive)
19 | COc1ccc2c3c([nH]c2c1[N+](=O)[O-])C(C)=NCC3 | 18.8 µM (inactive) | 52.6 µM (inactive) | 93.5 µM (inactive) | 20.9 µM (inactive) | – | 34.9 µM (inactive) | > 100 µM (inactive) | 20 µM (inactive) | 65.6 µM (inactive) | 80.7 µM (inactive) | > 100 µM (inactive) | > 100 µM (inactive) | 98.4 µM (inactive) | 30.2 µM (inactive) | > 100 µM (inactive)
